Assay results taken from publication PMC5309800, “Natural amines inhibit activation of human plasmacytoid dendritic cells through CXCR4 engagement” (Nature Communications, 2017).
pKi: −log10 of the molar value.

Assays:
[1] = molecular target: T1, CXC chemokine receptor 4 (CXCR4) (Homo sapiens, UniProt P61073); assay: Tag-lite TR-FRET competition with CXCL12-red on HALO-CXCR4 cells; also inhibits […]5 antibody binding on Jurkat cells; type: cell-based
[2] = molecular target: T1, CXC chemokine receptor 4 (CXCR4); assay: cell-based

T1 sequence (P61073 whole entry): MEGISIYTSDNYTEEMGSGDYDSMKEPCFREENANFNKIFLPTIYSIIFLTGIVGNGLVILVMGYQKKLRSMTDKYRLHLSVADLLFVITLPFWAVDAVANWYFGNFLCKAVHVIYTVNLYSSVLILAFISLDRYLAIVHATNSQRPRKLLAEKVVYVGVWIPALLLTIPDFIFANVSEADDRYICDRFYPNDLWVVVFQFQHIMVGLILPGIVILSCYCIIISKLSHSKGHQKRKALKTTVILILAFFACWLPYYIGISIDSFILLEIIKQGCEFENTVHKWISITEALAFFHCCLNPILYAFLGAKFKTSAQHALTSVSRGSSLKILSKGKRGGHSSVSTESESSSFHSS

SMILES: NC(=NCc1ccc(Cl)cc1)SCCCc1cnc[nH]1 [CB, clobenpropit]
- pKi [1]: 5.82

SMILES: NCCc1c[nH]cn1 [HA, histamine]
- pKi [2]: ~4.58
